Each molecule was assayed on BJAB cells (assay: BJAB cell proliferation (Cell Titer Glo)). Details: Homo sapiens, read-out: EC50.
Type: cell-based
Procedure, shortened: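 EC50 values come from non-linear regression of luminescence (Cell Titer Glo), expressed relative to untreated wells. BJAB cells were incubated roughly 72 h at 37 °C with serial compound dilutions carrying 0.1% final DMSO.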

First: Cc1nn(-c2nc(-c3ccc(Cl)c(Cl)c3)c(SC(C)C)s2)c(C(=O)O)c1-c1cnsc1 [Compound 91, 1-(4-(3,4-dichlorophenyl)-5-(isopropylthio)thiazol-2-yl)-4-(isothiazol-4-yl)-3-methyl-1H-pyrazole-5-carboxylic acid]
Second: Cc1nn(-c2nc(-c3ccc(Cl)c(Cl)c3)c(SC(C)C)s2)c(C(=O)O)c1-c1cn[nH]c1 [Compound 109, 2-(4-(3,4-dichlorophenyl)-5-(isopropylthio)thiazol-2-yl)-5-methyl-4,4′-bi(2H-pyrazole)-3-carboxylic acid]
The EC50 of the first is lower: 5 to 10 µM for the first, 25 to 50 µM for the second.

`Cc1cc(-c2c(C)nn(-c3nc(-c4ccc(Cl)c(Cl)c4)c(SC(C)C)s3)c2C(=O)O)sn1` [Compound 92, 1-(4-(3,4-dichlorophenyl)-5-(isopropylthio)thiazol-2-yl)-3-methyl-4-(3-methylisothiazol-5-yl)-1H-pyrazole-5-carboxylic Acid] and `Cc1cccc(-c2c(C)nn(-c3nc(-c4ccc(Cl)c(Cl)c4)c(SC(C)C)s3)c2C(=O)O)c1` [Compound 118, 1-(4-(3,4-dichlorophenyl)-5-(isopropylthio)thiazol-2-yl)-3-methyl-4-m-tolyl-1H-pyrazole-5-carboxylic Acid] fall in the same range of EC50: 1 to 5 µM for the first, 1 to 5 µM for the second.

`Cc1nn(-c2nc(-c3ccc(Cl)c(Cl)c3)c(SC(C)C)s2)c(C(=O)O)c1-c1ccn(C)c(=O)c1` [Compound 93, 1-(4-(3,4-dichlorophenyl)-5-(isopropylthio)thiazol-2-yl)-3-methyl-4-(1-methyl-2-oxo-1,2-dihydropyridin-4-yl)-1H-pyrazole-5-carboxylic acid] and `Cc1nn(-c2nc(-c3ccc(Cl)c(Cl)c3)c(SC(C)C)s2)c(C(=O)O)c1-c1cc(C)c(=O)n(C)c1` [Compound 94, 1-(4-(3,4-dichlorophenyl)-5-(isopropylthio)thiazol-2-yl)-4-(1,5-dimethyl-6-oxo-1,6-dihydropyridin-3-yl)-3-methyl-1H-pyrazole-5-carboxylic Acid] cannot be ordered by EC50: > 25 µM for the first, > 25 µM for the second.

First: Cc1cc(F)cc(-c2c(C)nn(-c3nc(-c4ccc(Cl)c(Cl)c4)c(SC(C)C)s3)c2C(=O)O)c1 [Compound 95, 1-(4-(3,4-dichlorophenyl)-5-(isopropylthio)thiazol-2-yl)-4-(3-fluoro-5-methylphenyl)-3-methyl-1H-pyrazole-5-carboxylic Acid]
Second: Cc1cc(O)cc(-c2c(C)nn(-c3nc(-c4ccc(Cl)c(Cl)c4)c(SC(C)C)s3)c2C(=O)O)c1 [Compound 96, 1-(4-(3,4-dichlorophenyl)-5-(isopropylthio)thiazol-2-yl)-4-(3-hydroxy-5-methylphenyl)-3-methyl-1H-pyrazole-5-carboxylic acid]
The EC50 of the first is lower: 1 to 5 µM for the first, > 25 µM for the second. The first is the more potent here.

Compared with `Cc1cc(OC(C)C)cc(-c2c(C)nn(-c3nc(-c4ccc(Cl)c(Cl)c4)c(SC(C)C)s3)c2C(=O)O)c1` [Compound 97, 1-(4-(3,4-dichlorophenyl)-5-(isopropylthio)thiazol-2-yl)-4-(3-isopropoxy-5-methylphenyl)-3-methyl-1H-pyrazole-5-carboxylic Acid], `Cc1cc(-c2c(C)nn(-c3nc(-c4ccc(Cl)c(Cl)c4)c(SC(C)C)s3)c2C(=O)O)cc(N(C)C)c1` [Compound 99, 1-(4-(3,4-dichlorophenyl)-5-(isopropylthio)thiazol-2-yl)-4-(3-(dimethylamino)-5-methylphenyl)-3-methyl-1H-pyrazole-5-carboxylic acid] is higher in EC50: 1 to 5 µM for the first, 5 to 10 µM for the second.

First: Cc1cc(OC2COC2)cc(-c2c(C)nn(-c3nc(-c4ccc(Cl)c(Cl)c4)c(SC(C)C)s3)c2C(=O)O)c1 [Compound 98, 1-(4-(3,4-dichlorophenyl)-5-(isopropylthio)thiazol-2-yl)-3-methyl-4-(3-methyl-5-(oxetan-3-yloxy)phenyl)-1H-pyrazole-5-carboxylic Acid]
Second: Cc1ccc(-c2c(C)nn(-c3nc(-c4ccc(Cl)c(Cl)c4)c(SC(C)C)s3)c2C(=O)O)cc1 [Compound 119, 1-(4-(3,4-dichlorophenyl)-5-(isopropylthio)thiazol-2-yl)-3-methyl-4-p-tolyl-1H-pyrazole-5-carboxylic acid]
The EC50 of the first is lower: 1 to 5 µM for the first, 10 to 25 µM for the second. The first is the more potent here.

`Cc1cc(-c2c(C)nn(-c3nc(-c4ccc(Cl)c(Cl)c4)c(SC(C)C)s3)c2C(=O)O)cc(-n2ccnc2)c1` [Compound 100, 4-(3-(1H-imidazol-1-yl)-5-methylphenyl)-1-(4-(3,4-dichlorophenyl)-5-(isopropylthio)thiazol-2-yl)-3-methyl-1H-pyrazole-5-carboxylic Acid] and `Cc1cc(-c2c(C)nn(-c3nc(-c4ccc(Cl)c(Cl)c4)c(SC(C)C)s3)c2C(=O)O)cc(N2CCC2)n1` [Compound 101, 4-(2-(azetidin-1-yl)-6-methylpyridin-4-yl)-1-(4-(3,4-dichlorophenyl)-5-(isopropylthio)thiazol-2-yl)-3-methyl-1H-pyrazole-5-carboxylic acid] fall in the same range of EC50: 1 to 5 µM for the first, 1 to 5 µM for the second.

First: Cc1cc(-c2c(C)nn(-c3nc(-c4ccc(Cl)c(Cl)c4)c(SC(C)C)s3)c2C(=O)O)cc(N2CCOCC2)n1 [Compound 102, 1-(4-(3,4-dichlorophenyl)-5-(isopropylthio)thiazol-2-yl)-3-methyl-4-(2-methyl-6-morpholinopyridin-4-yl)-1H-pyrazole-5-carboxylic Acid]
Second: Cc1nn(-c2nc(-c3ccc(Cl)c(Cl)c3)c(SC(C)C)s2)c(C(=O)O)c1-c1ccc2cc[nH]c2c1 [Compound 107, 1-(4-(3,4-dichlorophenyl)-5-(isopropylthio)thiazol-2-yl)-4-(1H-indol-6-yl)-3-methyl-1H-pyrazole-5-carboxylic acid]
The EC50 of the first is lower: 5 to 10 µM for the first, 25 to 50 µM for the second.

`COc1cccc(-c2nc(-n3nc(C)c(Cc4ccccc4[N+](=O)[O-])c3C(=O)O)sc2SC(C)C)c1` [Compound 103, 1-(5-(isopropylthio)-4-(3-methoxyphenyl)thiazol-2-yl)-3-methyl-4-(2-nitrobenzyl)-1H-pyrazole-5-carboxylic Acid] and `COc1cccc(-c2nc(-n3nc(C)c(Cc4ccccc4NS(C)(=O)=O)c3C(=O)O)sc2SC(C)C)c1` [Compound 105, 1-(5-(isopropylthio)-4-(3-methoxyphenyl)thiazol-2-yl)-3-methyl-4-(2-(methylsulfonamido)benzyl)-1H-pyrazole-5-carboxylic acid] cannot be ordered by EC50: > 80 µM for the first, > 80 µM for the second.

Compared with `Cc1nn(-c2nc(-c3ccc(Cl)c(Cl)c3)c(SCCC(C)C)s2)c(C(=O)O)c1Cc1ccccc1[N+](=O)[O-]` [Compound 104, 1-(4-(3,4-dichlorophenyl)-5-(isopentylthio)thiazol-2-yl)-3-methyl-4-(2-nitrobenzyl)-1H-pyrazole-5-carboxylic acid], `CCC(C)Sc1sc(-n2nc(C)c(Cc3ccccc3[N+](=O)[O-])c2C(=O)O)nc1-c1ccc(Cl)c(Cl)c1` (stereo not drawn) [Compound 106, 1-(5-(sec-butylthio)-4-(3,4-dichlorophenyl)thiazol-2-yl)-3-methyl-4-(2-nitrobenzyl)-1H-pyrazole-5-carboxylic acid] is lower in EC50: 25 to 50 µM for the first, 10 to 25 µM for the second.

First: Cc1nn(-c2nc(-c3ccc(Cl)c(Cl)c3)c(SC(C)C)s2)c(C(=O)O)c1-c1cccc([N+](=O)[O-])c1 [Compound 108, 1-(4-(3,4-dichlorophenyl)-5-(isopropylthio)thiazol-2-yl)-3-methyl-4-(3-nitrophenyl)-1H-pyrazole-5-carboxylic Acid]
Second: Cc1nn(-c2nc(-c3ccc(Cl)c(Cl)c3)c(SC(C)C)s2)c(C(=O)O)c1-c1cccc(Cl)c1 [Compound 112, 4-(3-chlorophenyl)-1-(4-(3,4-dichlorophenyl)-5-(isopropylthio)thiazol-2-yl)-3-methyl-1H-pyrazole-5-carboxylic Acid]
The EC50 of the first is higher: 5 to 10 µM for the first, 1 to 5 µM for the second.

`Cc1nn(-c2nc(-c3ccc(Cl)c(Cl)c3)c(SC(C)C)s2)c(C(=O)O)c1-c1c[nH]c2ccccc12` [Compound 110, 1-(4-(3,4-dichlorophenyl)-5-(isopropylthio)thiazol-2-yl)-4-(1H-indol-3-yl)-3-methyl-1H-pyrazole-5-carboxylic acid] and `Cc1nn(-c2nc(-c3ccc(Cl)c(Cl)c3)c(SC(C)C)s2)c(C(=O)O)c1-c1ccccc1Cl` [Compound 111, 4-(2-chlorophenyl)-1-(4-(3,4-dichlorophenyl)-5-(isopropylthio)thiazol-2-yl)-3-methyl-1H-pyrazole-5-carboxylic acid] fall in the same range of EC50: 10 to 25 µM for the first, 10 to 25 µM for the second.

`Cc1nn(-c2nc(-c3ccc(Cl)c(Cl)c3)c(SC(C)C)s2)c(C(=O)O)c1-c1ccc(Cl)cc1` [Compound 113, 4-(4-chlorophenyl)-1-(4-(3,4-dichlorophenyl)-5-(isopropylthio)thiazol-2-yl)-3-methyl-1H-pyrazole-5-carboxylic acid] and `COc1ccc(-c2c(C)nn(-c3nc(-c4ccc(Cl)c(Cl)c4)c(SC(C)C)s3)c2C(=O)O)cc1` [Compound 116, 1-(4-(3,4-dichlorophenyl)-5-(isopropylthio)thiazol-2-yl)-4-(4-methoxyphenyl)-3-methyl-1H-pyrazole-5-carboxylic acid] fall in the same range of EC50: 10 to 25 µM for the first, 10 to 25 µM for the second.

Compared with `COc1ccccc1-c1c(C)nn(-c2nc(-c3ccc(Cl)c(Cl)c3)c(SC(C)C)s2)c1C(=O)O` [Compound 114, 1-(4-(3,4-dichlorophenyl)-5-(isopropylthio)thiazol-2-yl)-4-(2-methoxyphenyl)-3-methyl-1H-pyrazole-5-carboxylic acid], `Cc1ccccc1-c1c(C)nn(-c2nc(-c3ccc(Cl)c(Cl)c3)c(SC(C)C)s2)c1C(=O)O` [Compound 117, 1-(4-(3,4-dichlorophenyl)-5-(isopropylthio)thiazol-2-yl)-3-methyl-4-o-tolyl-1H-pyrazole-5-carboxylic acid] is lower in EC50: 10 to 25 µM for the first, 5 to 10 µM for the second.

First: COc1cccc(-c2c(C)nn(-c3nc(-c4ccc(Cl)c(Cl)c4)c(SC(C)C)s3)c2C(=O)O)c1 [Compound 115, 1-(4-(3,4-dichlorophenyl)-5-(isopropylthio)thiazol-2-yl)-4-(3-methoxyphenyl)-3-methyl-1H-pyrazole-5-carboxylic Acid]
Second: CC(=O)Nc1ccc(-c2c(C)nn(-c3nc(-c4ccc(Cl)c(Cl)c4)c(SC(C)C)s3)c2C(=O)O)cc1 [Compound 120, 4-(4-acetamidophenyl)-1-(4-(3,4-dichlorophenyl)-5-(isopropylthio)thiazol-2-yl)-3-methyl-1H-pyrazole-5-carboxylic acid]
The EC50 of the first is lower: 1 to 5 µM for the first, > 50 µM for the second. The first is the more potent here.

From US10537558B2 (Bantam Pharmaceutical, LLC, priority 2015, dated 2020)
